The nature of one series: HT-solubility assay. The class given is physicochemical. The settings on record: aqueous buffer, thermodynamic from solid; phosphate buffer pH 6.5. The procedure: This assay was performed on a TECAN station starting from 10 mM DMSO stock solutions of the test compounds. Two aliquots of the test compound were dried and dissolved in phosphate buffer at pH 6.5. Sonication supports optimal re-solubilization. The solutions were then filtered and diluted (3 different dilution levels for each compound) followed by quantification of the dissolved material with Rapid-Fire MS. Quantification was performed for each test compound with a 6-point calibration curve prepared with the same DMSO starting solution.

Series [1] in a line: In vitro microsomal stability, mouse. In kind it is in vitro ADME. The following applies: mouse microsomes, 1 µM; value of 10 = low clearance, essentially below detection limit. The procedure: (§1) Incubations of a test compound at a concentration of 1 µM with microsomes (0.5 mg/ml) from the appropriate species (human, mouse, or rat) plus cofactor NADPH were performed in 96-well plates at 37°C on a TECAN automated liquid handling system (Tecan Group Ltd., Männedorf, Switzerland). After pre-incubation of the test compound with the microsomes for 10 min, the enzymatic reaction was started by the addition of cofactors. Aliquots of the incubations are removed at 1, 3, 6, 9, 15, 25, 35, and 45 min and are then quenched with 1:3 (v/v) acetonitrile containing internal standards. Samples were then cooled and centrifuged before analysis of the supernatant by LC-MS/MS. Logarithmic Peak area ratios (test compound peak area/internal standard peak area) were plotted against incubation time and a linear fit made to the data with emphasis upon the initial rate of compound disappearance. The slope of the fit was then used to calculate the intrinsic clearance: Clint (µL/min/mg protein) = −slope (min-1) * 1,000/[protein concentration (mg/ml)].

Series [2] is described as follows: Glutathione addition screening. The class given is in vitro ADME. The following applies: human liver microsomes + NADPH + GSH. The procedure: All sample handling was performed based on a 96-well plate format using an automated pipetting system. The test compounds, positive controls (diclofenac, troglitazone, nefazodone, 4-[[1-(4-fluorophenyl)-2-methyl-1H-imidazol-4-yl]ethynyl]-2-methylpyridine) and solvent control (DMSO) were incubated with human liver microsomes supplemented with NADPH and reduced GSH. Stable GSH conjugates whose production can be assumed to be the result of chemically reactive metabolites were detected using a quadrupole time of flight mass spectrometer run in untargeted full scan accurate mass MSE mode (Waters Xevo G1 QTOFMSE; Waters GmbH, Eschborn, Germany). This generic GSH adduct detection method and the assay workflow are taking advantage of the specific fragmentation behavior of the peptide moiety upon collision induced dissociation of GSH adducts and so are largely independent of the conjugate (“X”) itself.

The next series deals with T1, human ATX (Homo sapiens, UniProt Q13822).
T1 construct: made in house
Description: Autotaxin inhibition assay (Amplex-Red). The class given is biochemical. The settings on record: ATX 3 nM, LPC 18:1 30 μM, read-out: hATX IC50. The procedure: Plates were sealed and incubated for 5 min. The final assay concentrations were ATX 3 nM, choline oxidase 2 U/ml, horseradish peroxidase 4 U/ml, LPC 18:1 30 μM, Amplex Red 50 μM, and DMSO 2%.

Series [3] in a line: Lipophilicity (LogD, octanol/buffer). The following applies: 1-octanol / 25 mM phosphate buffer; pH 7.4, octanol/25 mM phosphate buffer. The class given is physicochemical. The procedure:
The experiment started with the accurate coating of the hydrophobic layer (0.45 µm PVDF membranes), which was fixed on the bottom of each DIFI©-tube (Weidmann Medical Technology AG, Rapperswil, Switzerland). The coated membranes were then connected to a 96-well plate which has been prefilled with exactly 150 µl of the selected aqueous buffer solution (25 mM phosphate buffer, pH 7.4). The buffer solution contains already the compound of interest with a maximum starting concentration of 85 µM. To expand the measurement range down to logD = −0.5 and up to logD = +4, it is necessary to carry out the procedure at two different octanol/water ratios: One with an excess of octanol for hydrophilic compounds (logD < 1) and one with a low volume of octanol for the lipophilic compounds (logD > 1). Therefore, parts of the DIFI©-tubes were filled with 15 µl 1-octanol and another part with 1 µl 1-octanol. The resulting sandwich guarantees that the membrane was completely dipped in the buffer solution. The plate was then sealed and shaken for 12 h at room temperature (23°C). During this time, the substance is distributed between the layer, the octanol, and the buffer solution. After having reached a distribution equilibrium, the DIFI©-tubes were easily disassembled from the top of the 96-well plate, so that the remaining sample concentration in the aqueous phase could be analyzed by LC/MS.

A short description of series [4]: In vitro microsomal stability, human. The following applies: human microsomes, 1 µM; value of 10 = low clearance, essentially below detection limit. The class given is in vitro ADME. The procedure:
as §1

Series [5] is described as follows: In vitro microsomal stability, rat. The class given is in vitro ADME. The following applies: rat microsomes, 1 µM; value of 10 = low clearance, essentially below detection limit. The procedure:
as §1

Values after ≈ are worked out from the molar mass of the structure shown. Where only a bound is given, the exact number is not on record here.

The solubility is the dissolved amount per volume that the medium holds. Low readings indicate little dissolved substance, high ones much dissolved substance. What is called IC50 is the concentration that gives 50% inhibition. For orientation: logD means the decadic logarithm of the distribution of all forms, ionised or not, between an organic phase and buffer at a given pH. Read a high logD as higher lipophilicity. As to `O=C(OCc1cc(Cl)cc(Cl)c1)N1CC[C@@H]2CN(C(=O)c3ccc4[nH]c(=O)oc4c3)C[C@H]2C1` (relative stereo) [Compound 2, trans-3,5-Dichlorobenzyl 2-(2-oxo-2,3-dihydrobenzo[d]oxazole-6-carbonyl)hexa-hydro-1H-pyrrolo[3,4-c]pyridine-5(6H)-carboxylate], the solubility in the series “HT-solubility assay” was less than 1 µg/mL. The “Mic CL m” value in series [1] was determined as 74 µL/m/mg prot. Moreover, the GSH adducts result in series [2] was “formation of GSH adducts was still observed and pos”. Also, the concentration for half-maximal inhibition (IC50) at human ATX worked out at 0.003 µM. Besides, the logD at 12 h in series [3] was 3.7. In addition, the “Mic CL h” value in series [4] is given as 39 µL/m/mg prot.
In the series “HT-solubility assay”, `O=C(OCc1cc(Cl)cc(Cl)c1)N1CC[C@@H]2CN(C(=O)c3ccc4[nH]nnc4c3)C[C@H]2C1` (relative stereo) [Compound 6, trans-2-(1H-Benzotriazole-5-carbonyl)-octahydro-pyrrolo[3,4-c]pyridine-5-carboxylic acid 3,5-dichloro-benzyl ester] returned a solubility of 9 µg/mL (≈ 19 µM). Moreover, the “Mic CL m” value in series [1] is given as 65 µL/m/mg prot. Also, in series [2], the GSH adducts entry is given as “pos”. Moreover, the IC50 at human ATX was determined as 0.004 µM. This molecule also displayed a logD at 12 h in series [3] of 3.5. Further, the “Mic CL h” value in series [4] was determined as 23 µL/m/mg prot.
For `O=C(CCN1CCN(C(=O)OCc2cc(Cl)cc(Cl)c2)CC1)c1ccc2[nH]c(=O)oc2c1` [Compound 1, reference compound], the solubility in “HT-solubility assay” is less than 1 µg/mL. Further, the “Mic CL m” value in series [1] turned out to be 78 µL/m/mg prot. The GSH adducts entry in series [2] is “pos”. The logD at 12 h in series [3] was found to be 2.7. Besides, in series [5], the “Mic CL r” value was 84 µL/m/mg prot. Besides, the “Mic CL h” value in series [4] worked out at 65 µL/m/mg prot.
In “HT-solubility assay”, `O=C(OCc1cc(Cl)cc(Cl)c1)N1CC2(CCN(C(=O)c3ccc4[nH]c(=O)oc4c3)CC2)C1` [Compound 3, trans-3,5-Dichlorobenzyl 7-(2-oxo-2,3-dihydrobenzo[d]oxazole-6-carbonyl)-2,7-diaza-spiro[3.5]nonane-2-carboxylate] registered a solubility of less than 1 µg/mL. In series [1], the “Mic CL m” value was 81 µL/m/mg prot. Also, at human ATX, the concentration for half-maximal inhibition (IC50) came out at 0.22 µM. In addition, the logD at 12 h in series [3] worked out at 3.6. Moreover, the “Mic CL h” value in series [4] is reported as 92 µL/m/mg prot.
`O=C(OCc1cc(Cl)cc(Cl)c1)N1CCC2(CC1)CN(C(=O)c1ccc3[nH]c(=O)oc3c1)C2` [Compound 4, 3,5-Dichlorobenzyl 2-(2-oxo-2,3-dihydrobenzo[d]oxazole-6-carbonyl)-2,7-diaza-spiro[3.5]-nonane-7-carboxylate] showed a solubility in “HT-solubility assay” of less than 1 µg/mL. Also, in series [1], the “Mic CL m” value is recorded as 149 µL/m/mg prot. In addition, the GSH adducts result in series [2] is listed as “pos”. For the same molecule, at human ATX, the IC50 stood at 0.017 µM. In series [3], this molecule displayed a logD at 12 h of 3.6. Moreover, the “Mic CL h” value in series [4] is 54 µL/m/mg prot.
Regarding `O=C(OCc1cc(Cl)cc(Cl)c1)N1C[C@@H]2CN(C(=O)c3ccc4[nH]c(=O)oc4c3)C[C@@H]2C1` [Compound 5, (3aR,6aS)-3,5-Dichlorobenzyl 5-(2-oxo-2,3-dihydrobenzo[d]oxazole-6-carbonyl)-hexahydropyrrolo[3,4-c]pyrrole-2(1H)-carboxylate], the solubility in “HT-solubility assay” stood at 19 µg/mL (≈ 39.9 µM). Moreover, the “Mic CL m” value in series [1] is listed as 288 µL/m/mg prot. Besides, in series [2], the GSH adducts result is reported as “pos”. Moreover, the IC50 on human ATX came out at 0.065 µM. For the same molecule, in series [3], the logD at 12 h was determined as 3.3. Besides, in series [5], the “Mic CL r” value amounted to 335 µL/m/mg prot. Further, in series [4], the “Mic CL h” value is reported as 64 µL/m/mg prot.
For the molecule `O=C(OCc1cc(Cl)cc(Cl)c1)N1C[C@@H]2CN(C(=O)c3ccc4[nH]nnc4c3)C[C@@H]2C1` [Compound 8, (3aR,6aS)-3,5-dichlorobenzyl 5-(1H-benzo[d][1,2,3]triazole-5-carbonyl)hexahydro-pyrrolo[3,4-c]pyrrole-2(1H)-carboxylate], in “HT-solubility assay”, the solubility is 34 µg/mL (≈ 73.9 µM). Also, the “Mic CL m” value in series [1] came out at 68 µL/m/mg prot. For the same molecule, the GSH adducts entry in series [2] is reported as “pos”. The IC50 at human ATX came to 0.265 µM. Besides, the logD at 12 h in series [3] is 3.1. In addition, in series [4], the “Mic CL h” value stood at 23 µL/m/mg prot.
In “HT-solubility assay”, `O=C(OCc1cc(Cl)cc(Cl)c1)N1CCC2(CC1)CN(C(=O)c1ccc3[nH]nnc3c1)C2` [Compound 9, 3,5-Dichlorobenzyl 2-(1H-benzo[d][1,2,3]triazole-5-carbonyl)-2,7-diazaspiro[3.5]-nonane-7-carboxylate] yielded a solubility of 3 µg/mL (≈ 6.32 µM). For the same molecule, the “Mic CL m” value in series [1] worked out at 63 µL/m/mg prot. Also, the GSH adducts entry in series [2] is recorded as “pos”. Besides, on human ATX, the IC50 was found to be 0.067 µM. For the same molecule, the logD at 12 h in series [3] came out at 3.6. Further, the “Mic CL r” value in series [5] is 29 µL/m/mg prot. Moreover, in series [4], the “Mic CL h” value is reported as 30 µL/m/mg prot.
As for `O=C(OCc1cc(Cl)cc(Cl)c1)N1CC[C@@H]2CN(C(=O)c3ccc4[nH]nnc4c3)C[C@@H]2CC1` [Compound 10, cis-3,5-Dichlorobenzyl 2-(1H-benzo[d][1,2,3]triazole-5-carbonyl)octahydropyrrolo-[3,4-d]azepine-6(7H)-carboxylate], in the series “HT-solubility assay”, the solubility was 7 µg/mL (≈ 14.3 µM). The “Mic CL m” value in series [1] is 727 µL/m/mg prot. The IC50 at human ATX was 0.001 µM. For the same molecule, in series [4], the “Mic CL h” value is 252 µL/m/mg prot.
Regarding `O=C(/C=C/c1ccc(OC(F)(F)F)cc1)N1C[C@@H]2CN(C(=O)c3ccc4[nH]nnc4c3)C[C@H]2C1` [Compound 11, (E)-1-((3aR,6aR)-5-(1H-benzo[d][1,2,3]triazole-5-carbonyl)hexahydropyrrolo[3,4-c]pyrrol-2(1H)-yl)-3-(4-(trifluoromethoxy)phenyl)prop-2-en-1-one], the solubility in “HT-solubility assay” was less than 1 µg/mL. The “Mic CL m” value in series [1] is on record as 10/10/na µL/m/mg prot. Besides, the GSH adducts entry in series [2] was “Neg”. In addition, the IC50 on human ATX was 0.001 µM. The same molecule showed a logD at 12 h in series [3] of 2.3. In addition, the “Mic CL h” value in series [4] is given as 10/10/na µL/m/mg prot.

The values above are taken from paper PMC8807399, “Synthesis, Characterization, and in vivo Evaluation of a Novel Potent Autotaxin-Inhibitor” (Frontiers in Pharmacology, 2022).
